Measurements published in patent US20240158385A1, “NOVEL COMPOUNDS” (Cerevance, Inc., priority 2021, published 2024).

Target: T1, human KCNK13 (Homo sapiens, UniProt Q9HB14)
T1 construct: expressed in transfected cells
T1 sequence (Q9HB14 1-408): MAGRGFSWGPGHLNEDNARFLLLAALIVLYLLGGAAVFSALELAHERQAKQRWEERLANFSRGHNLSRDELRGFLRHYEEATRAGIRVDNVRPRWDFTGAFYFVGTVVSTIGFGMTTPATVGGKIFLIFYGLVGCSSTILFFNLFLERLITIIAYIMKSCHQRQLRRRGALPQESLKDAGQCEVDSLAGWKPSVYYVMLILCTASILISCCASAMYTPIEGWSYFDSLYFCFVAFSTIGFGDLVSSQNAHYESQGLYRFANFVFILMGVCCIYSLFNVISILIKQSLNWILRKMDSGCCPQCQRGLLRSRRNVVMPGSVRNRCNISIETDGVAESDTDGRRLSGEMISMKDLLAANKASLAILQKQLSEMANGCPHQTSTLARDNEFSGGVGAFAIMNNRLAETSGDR
Assay: KCNK13 antagonist activity, thallium (Tl+) flux FLIPR assay
Assay type: cell-based
Conditions: HEK 293 cells stably expressing human KCNK13; Tl+ sensitive dye, FLIPR; compounds 15 minutes prior to thallium sulfate; 10 point half log curves from 10 PM; read-out: hKCNK13 IC50
How it was run: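 HEK 293 cells stably expressing human KCNK13 loaded with Tl+-sensitive dye for 1 h at room temperature. Compounds (10-point half-log curves) preincubated 15 min before thallium sulfate stimulus, fluorescence tracked by FLIPR. IC50 from ten-point curves, each point the mean of two wells.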

Compound | IC50 [nM]
Cc1nonc1-c1nc2ccccc2n1Cc1ccc(S(C)(=O)=O)nc1 [Example 58, 3-methyl-4-[1-[(6-(methylsulfonyl)pyridin-3-yl)methyl]benzimidazol-2-yl]-1,2,5-oxadiazole] | < 100
Nc1nonc1-c1nc2cccnc2n1Cc1cccnc1 [Example 59, 4-[3-(pyridin-3-ylmethyl)imidazo[4,5-b]pyridin-2-yl]-1,2,5-oxadiazol-3-amine] | < 200
Cc1nonc1-c1nc2ccccc2n1Cc1ccc(Cl)nc1 [Example 60, 3-[1-[(6-chloropyridin-3-yl)methyl]benzimidazol-2-yl]-4-methyl-1,2,5-oxadiazole] | < 100
Cc1ccc(Cn2c(-c3nonc3C)nc3ccccc32)cn1 [Example 63, 3-methyl-4-[1-[(6-methylpyridin-3-yl)methyl]benzimidazol-2-yl]-1,2,5-oxadiazole] | < 200
Cc1ncc(Cn2c(-c3nonc3C)nc3ccccc32)cn1 [Example 64, 3-methyl-4-[1-[(2-methylpyrimidin-5-yl)methyl]benzimidazol-2-yl]-1,2,5-oxadiazole] | < 200
Cc1nonc1-c1nc2c(F)ccc(F)c2n1Cc1cccnc1 [Example 65, 3-[4,7-difluoro-1-(pyridin-3-ylmethyl)benzimidazol-2-yl]-4-methyl-1,2,5-oxadiazole] | < 50
COc1cc(Cn2c(-c3nonc3C)nc3ccccc32)ccn1 [Example 66, 3-[1-[(2-methoxypyridin-4-yl)methyl]benzimidazol-2-yl]-4-methyl-1,2,5-oxadiazole] | < 200
Cc1nonc1-c1nc2ccccc2n1Cc1cccnc1C#N [Example 67, 3-[[2-(4-methyl-1,2,5-oxadiazol-3-yl)benzimidazol-1-yl]methyl]pyridine-2-carbonitrile] | < 200
Fc1cccc2nc(-c3cnns3)n(Cc3cccnc3)c12 [Example 68, 5-[7-fluoro-1-(pyridin-3-ylmethyl)benzimidazol-2-yl]-1,2,3-thiadiazole] | < 200
Cc1cccnc1Cn1c(-c2nonc2C)nc2ccccc21 [Example 69, 3-methyl-4-[1-[(3-methylpyridin-2-yl)methyl]benzimidazol-2-yl]-1,2,5-oxadiazole] | < 200
CCOc1cccc2nc(-c3nonc3C)n(Cc3ccncc3)c12 [Example 70, 3-[7-ethoxy-1-(pyridin-4-ylmethyl)benzimidazol-2-yl]-4-methyl-1,2,5-oxadiazole] | < 500
Cc1nonc1-c1nc2cccc(N)c2n1Cc1cccnc1 [Example 72, 2-(4-methyl-1,2,5-oxadiazol-3-yl)-3-(pyridin-3-ylmethyl)benzimidazol-4-amine] | < 500
CNc1ccc(Cn2c(-c3nonc3C)nc3ccccc32)cn1 [Example 73, N-methyl-5-[[2-(4-methyl-1,2,5-oxadiazol-3-yl)benzimidazol-1-yl]methyl]pyridin-2-amine] | < 500
Cc1cc(Cn2c(-c3nonc3C)nc3ccccc32)ccn1 [Example 74, 3-methyl-4-[1-[(2-methylpyridin-4-yl)methyl]benzimidazol-2-yl]-1,2,5-oxadiazole] | < 500
Cc1cc(C)nc(Cn2c(-c3nonc3C)nc3ccccc32)c1 [Example 75, 3-[1-[(4,6-dimethylpyridin-2-yl)methyl]benzimidazol-2-yl]-4-methyl-1,2,5-oxadiazole] | < 500
Cc1nonc1-c1nc2ccccc2n1Cc1ccc[n+]([O-])c1 [Example 76, 3-methyl-4-[1-[(1-oxidopyridin-1-ium-3-yl)methyl]benzimidazol-2-yl]-1,2,5-oxadiazole] | < 500
Cc1nonc1-c1nc2ccccc2n1Cc1cc[n+]([O-])cc1 [Example 77, 3-methyl-4-[1-[(1-oxidopyridin-1-ium-4-yl)methyl]benzimidazol-2-yl]-1,2,5-oxadiazole] | < 1000
Cc1cccc(Cn2c(-c3nonc3C)nc3ccccc32)n1 [Example 78, 3-methyl-4-[1-[(6-methylpyridin-2-yl)methyl]benzimidazol-2-yl]-1,2,5-oxadiazole] | < 500
Cc1nonc1-c1nc2ccccc2n1Cc1ccccn1 [Example 79, 3-methyl-4-[1-(pyridin-2-ylmethyl)benzimidazol-2-yl]-1,2,5-oxadiazole] | < 500
Cc1nsnc1-c1nc2ccc(F)cc2n1Cc1ccc(C#N)nc1 [Example 80, 5-[[6-fluoro-2-(4-methyl-1,2,5-thiadiazol-3-yl)benzimidazol-1-yl]methyl]pyridine-2-carbonitrile] | < 1000
CNc1cccc2nc(-c3nonc3C)n(Cc3cccnc3)c12 [Example 81, N-methyl-2-(4-methyl-1,2,5-oxadiazol-3-yl)-3-(pyridin-3-ylmethyl)benzimidazol-4-amine] | < 1000
Cc1nonc1-c1nc2ccccc2n1Cc1ncccc1F [Example 82, 3-[1-[(3-fluoropyridin-2-yl)methyl]benzimidazol-2-yl]-4-methyl-1,2,5-oxadiazole] | < 1000
Cc1nonc1-c1nc2c(F)ccc(F)c2n1Cc1cnc(C#N)nc1 [Example 83, 5-[[4,7-difluoro-2-(4-methyl-1,2,5-oxadiazol-3-yl)benzimidazol-1-yl]methyl]pyrimidine-2-carbonitrile] | < 200
Cc1nonc1-c1nc2c(F)ccc(F)c2n1Cc1cncnc1 [Example 84, 3-[4,7-difluoro-1-(pyrimidin-5-ylmethyl)benzimidazol-2-yl]-4-methyl-1,2,5-oxadiazole] | < 100
Nc1nonc1-c1nc2ccccc2n1Cc1ccc(Br)nc1 [Example 88, 4-(1-((6-bromopyridin-3-yl)methyl)benzimidazol-2-yl)-1,2,5-oxadiazol-3-amine] | < 50
C=Cc1nsnc1-c1nc2ccccc2n1Cc1cccnc1 [Example 89, 3-[1-(pyridin-3-ylmethyl)benzimidazol-2-yl]-4-vinyl-1,2,5-thiadiazole] | < 50
Nc1nonc1-c1nc2ccccc2n1Cc1cccnc1 [Example 90, 4-[1-(pyridin-3-ylmethyl)benzimidazol-2-yl]-1,2,5-oxadiazol-3-amine] | < 50

The next lines start with the values.

IC50 [nM] | Compound
< 50 | Nc1nonc1-c1nc2ccc(F)cc2n1Cc1ccncc1 [Example 91, 4-[6-fluoro-1-(pyridin-4-ylmethyl)benzimidazol-2-yl]-1,2,5-oxadiazol-3-amine]
< 50 | Nc1nonc1-c1nc2cc(F)ccc2n1Cc1ccncc1 [Example 92, 4-[5-fluoro-1-(pyridin-4-ylmethyl)benzimidazol-2-yl]-1,2,5-oxadiazol-3-amine]
< 50 | COc1cc(Cn2c(-c3nonc3N)nc3ccccc32)ccn1 [Example 93, 4-[1-[(2-methoxypyridin-4-yl)methyl]benzimidazol-2-yl]-1,2,5-oxadiazol-3-amine]
< 100 | Nc1nonc1-c1nc2ccccc2n1Cc1ccnc(C(F)(F)F)c1 [Example 94, 4-[1-[[2-(trifluoromethyl)pyridin-4-yl]methyl]benzimidazol-2-yl]-1,2,5-oxadiazol-3-amine]
< 100 | Nc1nonc1-c1nc2ccccc2n1Cc1cncc(C(F)(F)F)c1 [Example 95, 4-[1-[[5-(trifluoromethyl)pyridin-3-yl]methyl]benzimidazol-2-yl]-1,2,5-oxadiazol-3-amine]
< 100 | CNc1nsnc1-c1nc2ccccc2n1Cc1cccnc1 [Example 96, N-methyl-4-[1-(pyridin-3-ylmethyl)benzimidazol-2-yl]-1,2,5-thiadiazol-3-amine]
< 100 | Nc1nonc1-c1nc2ccccc2n1Cc1ccc(C(F)(F)F)nc1 [Example 97, 4-[1-[[6-(trifluoromethyl)pyridin-3-yl]methyl]benzimidazol-2-yl]-1,2,5-oxadiazol-3-amine]
< 100 | Cc1nonc1-c1nc2ccccc2n1Cc1ccncc1 [Example 98, 3-methyl-4-[1-(pyridin-4-ylmethyl)benzimidazol-2-yl]-1,2,5-oxadiazole]
< 100 | N#Cc1nsnc1-c1nc2ccccc2n1Cc1cccnc1 [Example 99, 4-[1-(pyridin-3-ylmethyl)benzimidazol-2-yl]-1,2,5-thiadiazole-3-carbonitrile]
< 200 | Cc1ccsc1-c1nc2ccccc2n1Cc1cccnc1 [Example 100, 2-(3-methylthiophen-2-yl)-1-(pyridin-3-ylmethyl)benzimidazole]
< 100 | Cc1nonc1-c1nc2ccccc2n1Cc1cccnc1 [Example 101, 3-methyl-4-[1-(pyridin-3-ylmethyl)benzimidazol-2-yl]-1,2,5-oxadiazole]
< 200 | Cc1snnc1-c1nc2ccccc2n1Cc1cccnc1 [Example 102, 5-methyl-4-[1-(pyridin-3-ylmethyl)benzimidazol-2-yl]-1,2,3-thiadiazole]
< 200 | Cc1ocnc1-c1nc2ccccc2n1Cc1cccnc1 [Example 103, 5-methyl-4-[1-(pyridin-3-ylmethyl)benzimidazol-2-yl]oxazole]
< 200 | Cc1conc1-c1nc2ccccc2n1Cc1cccnc1 [Example 104, 4-methyl-3-[1-(pyridin-3-ylmethyl)benzimidazol-2-yl]isoxazole]
< 200 | CCc1nsnc1-c1nc2ccccc2n1Cc1cccnc1 [Example 105, 3-ethyl-4-[1-(pyridin-3-ylmethyl)benzimidazol-2-yl]-1,2,5-thiadiazole]
< 200 | Nc1nonc1-c1nc2ccccc2n1Cc1ccncn1 [Example 106, 4-[1-(pyrimidin-4-ylmethyl)benzimidazol-2-yl]-1,2,5-oxadiazol-3-amine]
